The inhibition is how much of the control response was suppressed. Low values mean a weak effect, high ones a strong effect.

The assay deals with Staphylococcus aureus (Sau) 516 cells. The assay is described as follows: Bacterial Susceptibility Testing Methods 2 (microbroth dilution, growth inhibition). It counts as cell-based. An excerpt:
Compounds may be tested for antimicrobial activity by susceptibility testing using microbroth dilution methods recommended by CSLI. Compounds may be dissolved in dimethylsulfoxide and tested in 10 doubling dilutions in the susceptibility assays such that the final dimethylsulfoxide concentration in the assay is 2% (v/v). The Staphylococcus aureus (Sau) 516 cells used in the assay may be grown overnight on appropriate agar media and then suspended in the NCCLS-recommended liquid susceptibility-testing media. […] Plates may be incubated under appropriate conditions of atmosphere and temperature and for times according to NCCLS standard methods prior to being read. As used in Table 1 below, the term “inhibition” refers to the percentage of Staphylococcus aureus 516 cell growth that is suppressed (compared to an untreated sample) by the compound of the indicated example number. When tested in the above in-vitro assay, the compounds and salts of the example numbers listed below were tested at the indicated concentrations, providing the indicated inhibitions. In most instances, the highest concentrations at which the compounds were tested was 8 μg/mL. In some instances, however, compounds were tested at concentrations higher than 8 μg/mL, typically when the concentration was first measured in μM and was subsequently converted to μg/mL. In those cases in which compounds were tested at more than one concentration higher than 8 μg/mL, the concentration closest to 8 μg/mL is provided below.
(In broth dilution the organism is exposed to a series of concentrations in liquid medium.)

Setting [1] is: Staphylococcus aureus, Tested Concentration 8 μg/mL, Staphylococcus aureus 516 cell growth suppressed compared to untreated sample.
Setting [2] is: Tested Concentration 8 μg/mL, Staphylococcus aureus 516 cell growth suppressed compared to untreated sample.
The mark [3] stands for this setting: Staphylococcus aureus, Tested Concentration 12 μg/mL, Staphylococcus aureus 516 cell growth.

Structures are written as SMILES.

The compound `COc1ccc2ncc(=O)n(CCN3CCC(NCc4cc5c(cn4)OCCO5)C(O)C3)c2c1` (single isomer, unassigned) [Example 29, 1-(2-{4-[(2,3-Dihydro[1,4]dioxino[2,3-c]pyridin-7-ylmethyl)amino]-3-hydroxypiperidin-1-yl}ethyl)-7-methoxyquinoxalin-2(1H)-one] displayed an inhibition at 8 µg/mL under setting [1] of 84%.
Turning to `COc1ccc2ncc(=O)n(CCN3CCC(NCc4ccc5c(n4)NC(=O)CO5)C(O)C3)c2c1` (single isomer, unassigned) [Example 30, 6-[({3-Hydroxy-1-[2-(7-methoxy-2-oxoquinoxalin-1(2H)-yl)ethyl]piperidin-4-yl}amino)methyl]-2H-pyrido[3,2-b][1,4]oxazin-3(4H)-one], the inhibition at 8 µg/mL under setting [1] was found to be 98%.
`COc1ccc2ncc(=O)n(CCN3CCC(NCc4cc5c(cn4)OCCO5)C(O)C3)c2c1` (single isomer, unassigned) [Example 31, 1-(2-{4-[(2,3-dihydro[1,4]dioxino[2,3-c]pyridin-7-ylmethyl)amino]-3-hydroxypiperidin-1-yl}ethyl)-7-methoxyquinoxalin-2(1H)-one]: the “Inhibition (%)” value under setting [2] was 87%.
For `COc1ccc2ncc(=O)n(CCN3CCC(NCc4ccc5c(n4)NC(=O)CO5)C(O)C3)c2c1` (single isomer, unassigned) [Example 32, 6-[({3-Hydroxy-1-[2-(7-methoxy-2-oxoquinoxalin-1(2H)-yl)ethyl]piperidin-4-yl}amino)methyl]-2H-pyrido[3,2-b][1,4]oxazin-3 (4H)-one], the “Inhibition (%)” value under setting [2] is 98%.
`N#Cc1ccc2ccc(=O)n(CCN3CCC(NCc4cc5c(cn4)OCCO5)C(F)C3)c2c1` (single isomer, unassigned) [Example 33, 1-(2-{4-[(2,3-Dihydro[1,4]dioxino[2,3-c]pyridin-7-ylmethyl)amino]-3-fluoropiperidin-1-yl}ethyl)-2-oxo-1,2-dihydroquinoline-7-carbonitrile]: where the note is “Staphylococcus aureus, Tested Concentration 13 μg/mL, Staphylococcus aureus 516 cell growth”, the inhibition at 13 µg/mL came to 96%.
`COc1ccc2ncc(=O)n(CCN3CCC(NCc4cc5c(cn4)OCCO5)C(F)C3)c2c1` (single isomer, unassigned) [Example 35, 1-(2-{4-[(2,3-Dihydro[1,4]dioxino[2,3-c]pyridin-7-ylmethyl)amino]-3-fluoropiperidin-1-yl}ethyl)-7-methoxyquinoxalin-2(1H)-one] came in with an inhibition at 14 µg/mL (Staphylococcus aureus, Tested Concentration 14 μg/mL, Staphylococcus aureus 516 cell growth) of 100%.
As for `COc1ccc2ncc(=O)n(CCN3CCC(NCc4ccc5c(n4)NC(=O)CO5)C(F)C3)c2c1` (single isomer, unassigned) [Example 36, 6-[({3-Fluoro-1-[2-(7-methoxy-2-oxoquinoxalin-1(2H)-yl)ethyl]piperidin-4-yl}amino)methyl]-2H-pyrido[3,2-b][1,4]oxazin-3(4H)-one], the inhibition at 12 µg/mL under setting [3] was determined as 90%.
For `N#Cc1ccc2ccc(=O)n(CCN3CCC(NCc4cc5c(cn4)OCCO5)C(F)C3)c2c1` (single isomer, unassigned) [Example 37, 1-(2-{4-[(2,3-Dihydro[1,4]dioxino[2,3-c]pyridin-7-ylmethyl)amino]-3-fluoropiperidin-1-yl}ethyl)-2-oxo-1,2-dihydroquinoline-7-carbonitrile], the “Inhibition (%)” value (Tested Concentration 13 μg/mL, Staphylococcus aureus 516 cell growth) stood at 100%.
Consider `N#Cc1ccc2ccc(=O)n(CCN3CCC(NCc4ccc5c(n4)NC(=O)CO5)C(F)C3)c2c1` (single isomer, unassigned) [Example 38, 1-[2-(3-Fluoro-4-{[(3-oxo-3,4-dihydro-2H-pyrido[3,2-b][1,4]oxazin-6-yl)methyl]amino}piperidin-1-yl)ethyl]-2-oxo-1,2-dihydro quino line-7-carbonitrile], for which testing at 12 µg/mL under setting [3] gave an inhibition of 100%.
Regarding `COc1ccc2ncc(=O)n(CCN3CCC(NCc4cc5c(cn4)OCCO5)C(F)C3)c2c1` (single isomer, unassigned) [Example 39, 1-(2-{4-[(2,3-Dihydro[1,4]dioxino[2,3-c]pyridin-7-ylmethyl)amino]-3-fluoropiperidin-1-yl}ethyl)-7-methoxyquinoxalin-2(1H)-one], the “Inhibition (%)” value (Tested Concentration 14 μg/mL, Staphylococcus aureus 516 cell growth) is recorded as 100%.
As for `COc1ccc2ncc(=O)n(CCN3CCC(NCc4ccc5c(n4)NC(=O)CO5)C(F)C3)c2c1` (single isomer, unassigned) [Example 40, 6-[({3-Fluoro-1-[2-(7-methoxy-2-oxoquinoxalin-1(2H)-yl)ethyl]piperidin-4-yl}amino)methyl]-2H-pyrido[3,2-b][1,4]oxazin-3 (4H)-one], the “Inhibition (%)” value (Tested Concentration 12 μg/mL, Staphylococcus aureus 516 cell growth) was 100%.
On to `N#Cc1ccc2ccc(=O)n(CCN3CC[C@H](NCc4cc5c(cn4)OCCO5)[C@H](O)C3)c2c1` [Example 1], for which the “Inhibition (%)” value under setting [2] turned out to be 100%.
With `N#Cc1ccc2ccc(=O)n(CCN3CC[C@H](NCc4ccc5c(n4)NC(=O)CS5)[C@H](O)C3)c2c1` [Example 3, 1-[2-((3R,4S)-3-Hydroxy-4-{[(3-oxo-3,4-dihydro-2H-pyrido[3,2-b][1,4]thiazin-6-yl)methyl]amino}piperidin-1-yl)ethyl]-2-oxo-1,2-dihydroquinoline-7-carbonitrile], under setting [1], the inhibition at 8 µg/mL was found to be 99%.
The same measure, in the same setting: the same measure for `N#Cc1ccc2ccc(=O)n(CCN3CC[C@@H](NCc4cc5c(cn4)OCCO5)[C@@H](O)C3)c2c1` [Example 4, 1-(2-{(3S,4R)-4-[(2,3-Dihydro[1,4]dioxino[2,3-c]pyridin-7-ylmethyl)amino]-3-hydroxypiperidin-1-yl}ethyl)-2-oxo-1,2-dihydroquinoline-7-carbonitrile]: 100%; for `N#Cc1ccc2ccc(=O)n(CCN3CC[C@@H](NCc4ccc5c(n4)NC(=O)CO5)[C@@H](O)C3)c2c1` [Example 5, 1-[2-((3S,4R)-3-Hydroxy-4-{[(3-oxo-3,4-dihydro-2H-pyrido[3,2-b][1,4]oxazin-6-yl)methyl]amino}piperidin-1-yl)ethyl]-2-oxo-1,2-dihydro quino line-7-carbonitrile]: 100%.
On the same count and under the same terms, the same measure for `N#Cc1ccc2ccc(=O)n(CCN3CC[C@@H](NCc4ccc5c(n4)NC(=O)CS5)[C@@H](O)C3)c2c1` [Example 6, 1-[2-((3S,4R)-3-Hydroxy-4-{[(3-oxo-3,4-dihydro-2H-pyrido[3,2-b][1,4]thiazin-6-yl)methyl]amino}piperidin-1-yl)ethyl]-2-oxo-1,2-dihydro quino line-7-carbonitrile]: 99%.
Under setting [1], `COc1ccc2ncc(=O)n(CCN3CC[C@H](NCc4cc5c(cn4)OCCO5)[C@H](O)C3)c2c1` [Example 7, 1-(2-{(3R,4S)-4-[(2,3-Dihydro[1,4]dioxino[2,3-c]pyridin-7-ylmethyl)amino]-3-hydroxypiperidin-1-yl}ethyl)-7-methoxyquinoxalin-2(1H)-one] yielded an inhibition at 8 µg/mL of 100%.
Still for that read-out and setting: to `COc1ccc2ncc(=O)n(CCN3CC[C@H](NCc4ccc5c(n4)NC(=O)CO5)[C@H](O)C3)c2c1` [Example 8, 6-[({(3R,4S)-3-Hydroxy-1-[2-(7-methoxy-2-oxoquinoxalin-1(2H)-yl)ethyl]piperidin-4-yl}amino)methyl]-2H-pyrido[3,2-b][1,4]oxazin-3(4H)-one] belongs 99%.
For the compound `COc1ccc2ncc(=O)n(CCN3CC[C@H](NCc4ccc5c(n4)NC(=O)CS5)[C@H](O)C3)c2c1` [Example 9], the “Inhibition (%)” value under setting [2] stood at 100%.
The compound `COc1ccc2ncc(=O)n(CCN3CC[C@@H](NCc4cc5c(cn4)OCCO5)[C@@H](O)C3)c2c1` [Example 10, 1-(2-{(3S,4R)-4-[(2,3-Dihydro[1,4]dioxino[2,3-c]pyridin-7-ylmethyl)amino]-3-hydroxypiperidin-1-yl}ethyl)-7-methoxyquinoxalin-2(1H)-one] showed an inhibition at 8 µg/mL under setting [1] of 100%.

The values above are taken from patent US20120270864A1, “2-QUINOLINONE AND 2-QUINOXALINONE-DERIVATIVES AND THEIR USE AS ANTIBACTERIAL AGENTS” (ASTRAZENECA AB, priority 2006, published 2012).
